Assay results taken from US12077503B2, “Substituted cyclic amides and their use as herbicides” (FMC CORPORATION, priority 2015, dated 2024).
Read-outs that look alike come from different tables or passages of the source.

Legend:
Format in all cases: in vivo
[1] = system: rice (Oryra sativa); assay: Test B flooded paddy test; details: Oryza sativa, 250 g ai/ha, Flood, read-out: Rice plant response rating
In short: (§1)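 Percent control, visually estimated after 13–15 d in the greenhouse on a 0–100 basis, compares treated pots with untreated ones; compound was put into paddy water 3 cm above the soil when plants had two leaves.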

[2] = system: ducksalad (Heteranthera limosa); assay: Test B flooded paddy test; details: Heteranthera limosa, 250 g ai/ha, Flood, read-out: Ducksalad plant response rating
In short: as §1

[3] = system: sedge, umbrella (small-flower umbrella sedge, Cyperus difformis); assay: Test B flooded paddy test; details: Cyperus difformis, 250 g ai/ha, Flood, read-out: Sedge, Umbrella plant response rating
In short: as §1

[4] = system: barnyardgrass (Echinochloa crus-galli); assay: Test B flooded paddy test; details: Echinochloa crus-galli, 250 g ai/ha, Flood, read-out: Barnyardgrass plant response rating
In short: as §1

[5] = system: Kochia (Kochia scoparia); assay: Test A postemergence; details: Bassia scoparia, post-emergence, 240 h, postemergence; for pest or weed control at 125 g/ha: 125 g ai/ha
In short: (§2)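 Visual injury, scored on a 0–100 scale relative to untreated controls, was recorded about 10 d after application. Treatments were a preemergence soil spray over planted seeds or a postemergence spray on plants at the one- to two-leaf stage, 2 to 10 cm tall, all in loam soil–sand blend in the greenhouse.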

[6] = system: wheat (Triticum aestivum); assay: Test A postemergence; details: Triticum aestivum, post-emergence, 240 h, postemergence; for plant injury at 125 g/ha: 125 g ai/ha
In short: as §2

[7] = system: corn (Zea mays); assay: Test A postemergence; details: Zea mays, post-emergence, 240 h, postemergence
In short: as §2

[8] = system: giant foxtail (Setaria faberii); assay: Test A postemergence; details: Setaria faberi, post-emergence, 240 h, postemergence; for pest or weed control at 125 g/ha: 125 g ai/ha
In short: as §2

[9] = system: barnyardgrass (Echinochloa crus-galli); assay: Test A postemergence; details: Echinochloa crus-galli, post-emergence, 240 h, postemergence; for pest or weed control at 125 g/ha: 125 g ai/ha
In short: as §2

[10] = system: ragweed (common ragweed, Ambrosia elatior); assay: Test A postemergence; details: Ambrosia artemisiifolia, post-emergence, 240 h, postemergence; for pest or weed control at 125 g/ha: 125 g ai/ha
In short: as §2

[11] = system: pigweed (Amaranthus retroflexus); assay: Test A postemergence; details: Amaranthus retroflexus, post-emergence, 240 h, postemergence; for pest or weed control at 125 g/ha: 125 g ai/ha
In short: as §2

[12] = system: blackgrass (Alopecurus myosuroides); assay: Test A postemergence; details: Alopecurus myosuroides, post-emergence, 240 h, postemergence; for pest or weed control at 125 g/ha: 125 g ai/ha
In short: as §2

[13] = system: ryegrass, Italian (Italian ryegrass, Lolium multiflorum); assay: Test A postemergence; details: Lolium multiflorum, post-emergence, 240 h, postemergence; for pest or weed control at 125 g/ha: 125 g ai/ha
In short: as §2

[14] = system: Galium (catchweed bedstraw, Galium aparine); assay: Test A postemergence; details: Galium, post-emergence, 240 h, postemergence; for pest or weed control at 125 g/ha: 125 g ai/ha
In short: as §2

[15] = 0 to 100 scale where 0 is no effect and 100 is complete control
[16] = scale of 0 to 100 where 0 is no effect and 100 is complete control

N#Cc1cc([C@H]2CNC(=O)[C@]2(O)C(=O)Nc2ccccc2F)ccc1F [Compound 1200]
0%: pest or weed control at 250 g/ha [1, 15] | pest or weed control at 250 g/ha [2, 15] | pest or weed control at 250 g/ha [3, 15] | pest or weed control at 250 g/ha [4, 15] | pest or weed control at 125 g/ha ([5]; visual injury vs untreated controls after approx. 10 d, 0 = no effect, 100 = complete control, read-out: Kochia plant response rating (0 to 100 scale)) | pest or weed control at 500 g/ha ([5]; 500 g ai/ha, 0 to 100 scale, 0 is no effect, 100 is complete control, read-out: Kochia plant response rating) | plant injury at 125 g/ha ([6]; visual injury vs untreated controls after approx. 10 d, 0 = no effect, 100 = complete control, read-out: Wheat plant response rating (0 to 100 scale)) | plant injury at 500 g/ha ([6]; 500 g ai/ha, 0 to 100 scale, 0 is no effect, 100 is complete control, read-out: Wheat plant response rating) | plant injury at 125 g/ha ([7]; 125 g ai/ha, visual injury vs untreated controls after approx. 10 d, 0 = no effect, 100 = complete control, read-out: Corn plant response rating (0 to 100 scale)) | plant injury at 500 g/ha ([7]; 500 g ai/ha, 0 to 100 scale, 0 is no effect, 100 is complete control, read-out: Corn plant response rating) | pest or weed control at 125 g/ha ([8]; visual injury vs untreated controls after approx. 10 d, 0 = no effect, 100 = complete control, read-out: Foxtail, Giant plant response rating (0 to 100 scale)) | pest or weed control at 500 g/ha ([8]; 500 g ai/ha, 0 to 100 scale, 0 is no effect, 100 is complete control, read-out: Foxtail, Giant plant response rating) | pest or weed control at 125 g/ha ([9]; visual injury vs untreated controls after approx. 10 d, 0 = no effect, 100 = complete control, read-out: Barnyardgrass plant response rating (0 to 100 scale)) | pest or weed control at 500 g/ha ([9]; 500 g ai/ha, 0 to 100 scale, 0 is no effect, 100 is complete control, read-out: Barnyardgrass plant response rating) | pest or weed control at 125 g/ha ([10]; visual injury vs untreated controls after approx. 10 d, 0 = no effect, 100 = complete control, read-out: Ragweed plant response rating (0 to 100 scale)) | pest or weed control at 500 g/ha ([10]; 500 g ai/ha, 0 to 100 scale, 0 is no effect, 100 is complete control, read-out: Ragweed plant response rating) | pest or weed control at 125 g/ha ([11]; visual injury vs untreated controls after approx. 10 d, 0 = no effect, 100 = complete control, read-out: Pigweed plant response rating (0 to 100 scale)) | pest or weed control at 500 g/ha ([11]; 500 g ai/ha, 0 to 100 scale, 0 is no effect, 100 is complete control, read-out: Pigweed plant response rating) | pest or weed control at 125 g/ha ([12]; visual injury vs untreated controls after approx. 10 d, 0 = no effect, 100 = complete control, read-out: Blackgrass plant response rating (0 to 100 scale)) | pest or weed control at 500 g/ha ([12]; 500 g ai/ha, 0 to 100 scale, 0 is no effect, 100 is complete control, read-out: Blackgrass plant response rating) | pest or weed control at 125 g/ha ([13]; visual injury vs untreated controls after approx. 10 d, 0 = no effect, 100 = complete control, read-out: Ryegrass, Italian plant response rating (0 to 100 scale)) | pest or weed control at 500 g/ha ([13]; 500 g ai/ha, 0 to 100 scale, 0 is no effect, 100 is complete control, read-out: Ryegrass, Italian plant response rating) | pest or weed control at 125 g/ha ([14]; visual injury vs untreated controls after approx. 10 d, 0 = no effect, 100 = complete control, read-out: Galium plant response rating (0 to 100 scale)) | pest or weed control at 500 g/ha ([14]; 500 g ai/ha, 0 to 100 scale, 0 is no effect, 100 is complete control, read-out: Galium plant response rating)

C=CCN1C[C@H](c2ccc(OC)c(F)c2)[C@@H](C(=O)Nc2ccccc2S(C)(=O)=O)C1=O [Compound 724]
0%: pest or weed control at 250 g/ha [1, 16] | pest or weed control at 250 g/ha [2, 16] | pest or weed control at 250 g/ha [3, 16] | pest or weed control at 250 g/ha [4, 16] | pest or weed control at 125 g/ha ([5]; visual injury after approximately 10 d, 0 to 100 scale (0 no effect, 100 complete control), read-out: Plant response rating, Kochia) | plant injury at 125 g/ha ([6]; visual injury after approximately 10 d, 0 to 100 scale (0 no effect, 100 complete control), read-out: Plant response rating, Wheat) | Corn plant response rating (crop injury, 0 = no effect, 100 = complete kill) at 125 g/ha ([7]; 125 g ai/ha, visual injury after approximately 10 d, 0 to 100 scale (0 no effect, 100 complete control)) | pest or weed control at 125 g/ha ([8]; visual injury after approximately 10 d, 0 to 100 scale (0 no effect, 100 complete control), read-out: Plant response rating, Foxtail, Giant) | pest or weed control at 125 g/ha ([9]; visual injury after approximately 10 d, 0 to 100 scale (0 no effect, 100 complete control), read-out: Plant response rating, Barnyardgrass) | pest or weed control at 125 g/ha ([10]; visual injury after approximately 10 d, 0 to 100 scale (0 no effect, 100 complete control), read-out: Plant response rating, Ragweed) | pest or weed control at 125 g/ha ([11]; visual injury after approximately 10 d, 0 to 100 scale (0 no effect, 100 complete control), read-out: Plant response rating, Pigweed) | pest or weed control at 125 g/ha ([12]; visual injury after approximately 10 d, 0 to 100 scale (0 no effect, 100 complete control), read-out: Plant response rating, Blackgrass) | pest or weed control at 125 g/ha ([13]; visual injury after approximately 10 d, 0 to 100 scale (0 no effect, 100 complete control), read-out: Plant response rating, Ryegrass, Italian) | pest or weed control at 125 g/ha ([14]; visual injury after approximately 10 d, 0 to 100 scale (0 no effect, 100 complete control), read-out: Plant response rating, Galium)
